Drawing on ChEMBL document CHEMBL1129670, “Synthesis and structure-activity relationships of N-propyl-N-(4-pyridinyl)-1H-indol-1-amine (besipirdine) and related analogs as potential therapeutic agents for Alzheimer's disease” (J Med Chem, 1996), this text covers IC50 for one compound.

One may read the IC50 as the concentration at which inhibition is half-maximal. Low values mean greater potency, high ones weaker potency.

For this test, the target named is T1, Adrenergic receptor alpha-2 (Rattus norvegicus, UniProt P22086+P19328+P22909).
T1 sequence (P22086 whole entry): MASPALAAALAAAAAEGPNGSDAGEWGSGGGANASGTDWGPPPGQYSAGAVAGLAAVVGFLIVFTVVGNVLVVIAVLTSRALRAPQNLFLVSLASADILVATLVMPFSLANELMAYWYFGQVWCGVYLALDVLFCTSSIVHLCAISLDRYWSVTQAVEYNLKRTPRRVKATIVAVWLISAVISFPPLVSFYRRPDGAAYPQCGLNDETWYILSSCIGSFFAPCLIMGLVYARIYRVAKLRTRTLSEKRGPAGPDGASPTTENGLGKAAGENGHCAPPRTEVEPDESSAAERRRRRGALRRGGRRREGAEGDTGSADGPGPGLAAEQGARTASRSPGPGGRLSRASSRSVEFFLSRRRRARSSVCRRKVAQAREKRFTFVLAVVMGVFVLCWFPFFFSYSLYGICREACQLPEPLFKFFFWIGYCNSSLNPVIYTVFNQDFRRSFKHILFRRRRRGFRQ
T1 sequence (P19328 whole entry): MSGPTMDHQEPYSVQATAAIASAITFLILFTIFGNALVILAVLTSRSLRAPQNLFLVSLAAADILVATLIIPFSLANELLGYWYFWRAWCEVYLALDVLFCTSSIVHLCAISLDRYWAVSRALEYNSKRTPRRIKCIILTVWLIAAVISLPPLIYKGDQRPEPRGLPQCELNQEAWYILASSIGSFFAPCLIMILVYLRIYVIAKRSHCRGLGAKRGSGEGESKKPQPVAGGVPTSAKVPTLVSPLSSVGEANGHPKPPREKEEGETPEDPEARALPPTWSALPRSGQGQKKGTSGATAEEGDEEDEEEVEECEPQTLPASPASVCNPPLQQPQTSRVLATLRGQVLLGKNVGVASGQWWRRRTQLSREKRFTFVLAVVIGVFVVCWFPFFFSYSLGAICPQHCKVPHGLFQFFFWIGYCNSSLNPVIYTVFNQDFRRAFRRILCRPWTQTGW
T1 sequence (P22909 whole entry): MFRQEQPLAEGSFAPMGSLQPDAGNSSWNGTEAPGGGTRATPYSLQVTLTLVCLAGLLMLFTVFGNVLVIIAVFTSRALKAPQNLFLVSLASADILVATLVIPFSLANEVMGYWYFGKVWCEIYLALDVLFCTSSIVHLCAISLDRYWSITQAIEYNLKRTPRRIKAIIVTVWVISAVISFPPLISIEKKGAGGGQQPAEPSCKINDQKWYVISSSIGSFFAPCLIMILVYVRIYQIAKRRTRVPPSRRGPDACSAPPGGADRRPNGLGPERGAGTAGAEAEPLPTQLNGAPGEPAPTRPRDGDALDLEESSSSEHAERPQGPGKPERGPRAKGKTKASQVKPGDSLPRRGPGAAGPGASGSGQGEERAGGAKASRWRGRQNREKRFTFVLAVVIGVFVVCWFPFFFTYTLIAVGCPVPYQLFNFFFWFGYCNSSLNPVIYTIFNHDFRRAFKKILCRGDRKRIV
Description: Inhibitory activity against [3H]yohimbine binding to Alpha-2 adrenergic receptor in rat cortex.

As to `CCCN(c1ccncc1)n1ccc2ccccc21` [BESIPIRDINE], the IC50 was determined as 0.25 µM.
